# Tests used:
# HUVECs = test: HB-19 entry in HUVECs, confocal microscopy; assay type: cell-based, human; conditions: 5 µM HB-19/Btn, 1 hour, 37°C
# Description: Figure 3 Specific binding and entry of HB-19 in endothelial cells. (A) HB-19/Btn forms a stable complex with nucleolin expressed on the surface of HUVECs. Cells were incubated (45 min, 20°C) with 0, 1, 2, 4, 8 and 12 µM of HB-19/Btn before preparation of surface/cytoplasmic and nuclear extracts and recovery of surface nucleolin from the surface/cytoplasmic extracts as in Figure 2A. Material extracted from 2×10^7 and 2×10^6 cells was analyzed in panels Surface and Surface/Cytoplasm or Nucleus, respectively. Immunoblotting was with the anti-nucleolin mAb D3. (B) The specific binding of HB-19/Btn to HUVECs. The binding of 1 µM HB-19/Btn was studied at 4 °C by FACScan analysis. To show the specificity of binding, the reaction was carried out in the absence or presence of 50 µM HB-19, F3, or 9Arg peptides. The ordinate gives the relative cell number, whereas the abscissa gives the relative fluorescence intensity. (C) HB-19 entry in HUVECs. Cells were incubated with 5 µM of HB-19/Btn (1 hour, 37°C) before fixation in PFA (for surface binding) or PFA-Triton (for entry), respectively. Cells were then successively incubated with rabbit anti-biotin antibodies and goat Texas Red-conjugated anti-rabbit IgG, and processed for confocal microscopy. The scans of cells toward the middle cell layer are presented (with the DAPI stained nuclei). […]
# [1] = tested on: CD31 endothelial marker in tumors; test: Tumor vascularization, CD31 immunohistochemistry; assay type: in vivo, mouse; conditions: CD31 staining; HB-19 5 mg/kg or 5-FU 40 mg/kg, intraperitoneal, 8 weeks; compared to untreated tumors
# Description: Figure 9 Reduced density of blood vessels in HB-19 treated tumor-bearing mice. Sections of tumors recovered from mice, untreated control and treated with either HB-19 or 5-FU (experiment described in Figure 8B) were stained with antibodies against the CD31 endothelial marker and analyzed by fluorescence microscopy. […] Angiogenesis was quantified by image analysis of CD31-labeled endothelial cells.
# Immediately after surgical resection, tumors, were frozen in liquid nitrogen and fixed for 20 min in acetone at 4°C or fixed with 4% PFA for paraffin inclusion. The sections of 8 µm were re-hydrated and saturated in PBS containing 1% BSA and 2% normal goat serum. To visualize tumor endothelial cells, sections were incubated with a Rat anti-mouse CD31 monoclonal antibody (1∶50) in saturation buffer 1 hour at room temperature. After two washes in PBS, sections were incubated for 1 hour at room temperature with biotinylated goat anti-Rat IgG (1∶1000 dilution; Chemicon International Inc., Temecula, CA) in saturation buffer, followed by three washes in PBS and incubation with the avidin-biotinylated-alkaline phosphatase complex (Vector Laboratories). […] Angiogenesis was quantified by Image analysis of CD31-labeled endothelial cells. The EC density in each field was expressed as the ratio of EC area/total area examined ×100 (%). […]
# [2] = Blood cell count in tumor bearing mice; assay type: in vivo, mouse; conditions: 3 times/week, 8 weeks
# Description: Figure 8 HB-19 inhibits tumor growth in the nude mice. (A) HB-19 inhibits the growth of MDA-MB-231 tumor-cell xenografts. Cells (2×10^6) were injected subcutaneously into the right flank of female nude mice. Two weeks later, mice with a palpable tumor of approximately 40 mm^3 in volume were randomly separated into three groups (n = 5) and were given peritumoral injections 3 times/week of 0.1 ml PBS alone (Control), HB-19 (5 mg/kg), or Tamoxifen (Tmx) 10 mg/kg) for 6 weeks. (B) HB-19 inhibits the growth of MDA-MB-435 tumor-cell xenografts. Cells (1×10^6) were injected in the mammary fat pad of female nude mice. Two weeks later, mice with a palpable tumor were randomly separated into three groups (n = 10) and were given intraperitoneal injections 3 times/week of 0.1 ml PBS alone (Control), HB-19 (5 mg/kg), or 5-fluouracil (5-FU, 40 mg/kg) for 8 weeks. At the end of each experiment (in A and B), mice were sacrificed and the tumors were excised and weighed. The results are presented as the mean weight ±standard deviation (±S.D.) obtained from the number of mice in each group. (C, D) Inhibition of tumor development in mice treated by intraperitoneal (i.p.) and subcutaneous (s.c.) administration of HB-19. MDA-MB-231 tumor bearing mice in three groups (n = 10) were treated with HB-19 (10 mg/kg) by i.p. or s.c. injections, 3 times/week for 28 days. […] Statistical significance: *p<0.05, **p<0.01, ***p<0.001.
# Blood samples were collected by cardiac puncture. Hematocrit level, white blood cells and platelets count were determined individually in whole blood anticoagulated with EDTA (1 mM) at room temperature. Blood cell count was analyzed with an automated flow cytometric blood cell counter (Cell-Dyn 3500, Abbott Laboratories, Rungis, France).
# athymic nude mice = conditions: mouse, in vivo
# Description: Inhibitory action of HB-19 was tested against established human breast carcinoma xenografts in the athymic nude mice. For this purpose, mice were inoculated subcutaneously with MDA-MB-231 or MDA-MB-435 cells that proliferate into palpable tumors in 2 weeks. Tumor bearing mice were then treated with HB-19 (Figure 8A, B) or control antitumoral reagents such as tamoxifen and 5-fluouracil (5-FU). The mice were administered 3 times per week with various drugs, during which time tumor-volume was measured by a caliper every third or fourth day. At the end of experiment, tumor-bearing mice were sacrificed, blood was collected for analysis, and the liver, lungs and spleen were removed for histological analysis.
# 4-week old female athymic nude Mice (Janvier, Le Genest St Isle, France) were injected subcutaneously in the right flank (MDA-MB-231) or in the mammary fat pad (MDA-MB-435) in 0.1 ml PBS. When the tumor reached about 40 mm^3, the mice were separated randomly in several groups. Administration of HB-19 in PBS (5 mg/kg body weight) was either by intraperitoneal, subcutaneous or peritumoral injections three times per week. Tumor volume was measured along two major axes with calipers. Tumor volume (mm^3) was calculated as follows: V = 4/3×π×R1 ^2×R2, where R1 is radius 1, R2 is radius 2 and R1<R2.
# [3] = cited from earlier work
# From the text: HB-19 treatment is not toxic in vitro and in vivo. The lack of translocation of HB-19 to the nucleus and nucleolus probably accounts for its lack of toxicity in cultured cells and in mice, since nuclear nucleolin is involved in many aspects of gene expression, [2]. […] In s ...
substance,measurement,setting,value
"pseudo-tripeptide Lysψ(CH2N)-Pro-Arg coupled to a template (H2NLys-Lys-Lys-Gly-Pro-Lys-Glu-Lys-AhxCONH2) [HB-19, pseudopeptide presenting pentavalently the pseudo-tripeptide Lysψ(CH2N)-Pro-Arg coupled to a template]",internalization and subcellular localization,HUVECs,internalized and is concentrated in the cytoplasm without translocation into the nucleus
same,inhibition of tumor vascularization,[1],significantly inhibited tumor vascularization
same,Eosinophils,"[2]; HB-19 5 mg/kg or 5-FU 40 mg/kg i.p., mean ± SD, n = 10, untreated 0.01±0.02",0.03±0.04 ×10^3/µl
same,Basophils,"[2]; HB-19 5 mg/kg or 5-FU 40 mg/kg i.p., mean ± SD, n = 10, untreated 0.10±0.06",0.09±0.04 ×10^3/µl
same,Monocytes,"[2]; HB-19 5 mg/kg or 5-FU 40 mg/kg i.p., mean ± SD, n = 10, untreated 0.20±0.09",0.23±0.07 ×10^3/µl
same,Neutrophils,"[2]; HB-19 5 mg/kg or 5-FU 40 mg/kg i.p., mean ± SD, n = 10, untreated 0.89±0.39, 5-FU p<0.05",1.03±0.44 ×10^3/µl
same,Lymphocytes,"[2]; HB-19 5 mg/kg or 5-FU 40 mg/kg i.p., mean ± SD, n = 10, untreated 1.84±0.78, 5-FU p<0.01",1.98±1.01 ×10^3/µl
same,Leukocytes,"[2]; HB-19 5 mg/kg or 5-FU 40 mg/kg i.p., mean ± SD, n = 10, untreated 3.05±1.29, 5-FU p<0.05",3.36±1.28 ×10^3/µl
same,Erythrocytes,"[2]; HB-19 5 mg/kg or 5-FU 40 mg/kg i.p., mean ± SD, n = 10, untreated 8.73±0.26, 5-FU p<0.0001",8.31±1.05 ×10^6/µl
same,Platelets,"[2]; HB-19 5 mg/kg or 5-FU 40 mg/kg i.p., mean ± SD, n = 10, untreated 1041±91",1037± 225 ×10^3/µl
same,"effect on number of platelets, erythrocytes and leukocytes","[2]; HB-19 5 mg/kg, intraperitoneal","no effect on the number of platelets, erythrocytes, and leukocytes"
same,effect on body weight and blood cell counts,athymic nude mice,no effect on body weight and on blood cell counts
same,effect on tissues at autopsy,athymic nude mice,no apparent effect on various tissues compared to control mice
same,recovery in bone marrow,[3]; a few minutes following intravenous injection,a significant proportion of the peptide is recovered in the bone marrow
same,tissue uptake,[3],there is a threshold for the tissue uptake of HB-19
same,persistence in tissue,"[3]; rats, 24 hours",a significant proportion still persists even after 24 hours in its active form
same,blood clearance,"[3]; rats, systemic administration",rapidly cleared from blood
same,tissue distribution,"[3]; rats, systemic administration",distributed selectively in tissues expressing enhanced levels of surface nucleolin
same,form of excreted radioactivity in urine,[3]; rats,most of the excreted radioactivity in the urine is in the form of HB-19 metabolites
same,route of elimination,[3]; rats,eliminated gradually by renal glomerular filtration

# From paper PMC2424174, “Suppression of Tumor Growth and Angiogenesis by a Specific Antagonist of the Cell-Surface Expressed Nucleolin” (PLoS ONE, 2008)
